Data as given in patent publication US20050120392A1, “Transgenic zebrafish models for thrombosis” (priority 2002, published 2005).
Entries after “also recorded” stand apart in the source; their conditions may differ. Where two headings read alike, the source gives them in different places. Bridge positions count the residues as written; N and C are the ends. Square brackets hold non-standard residues; d marks the D form. Peptide text beside a SMILES is read from it. hArg = N=C(N)NCCCC[C@H](N)C(=O)O; Mpa = O=C(O)CCS

Key:
P2Y12 mRNA = assay: P2Y12 morpholino knockdown in ADP thrombosis assay; type: in vivo, zebrafish; details: 2.4 ng morpholino, 90 pmol ADP
Excerpt: (§1) For some experiments (aspirin, Reopro, Integrilin, Ticlopidine and hirudin), larvae were scored according to the number of stationary platelets observed. The counts were done for sections of the larvae (FIG. 2) and later totaled for the larvae. […] In these experiments (morpholino), control larvae (ADP alone) had no moving platelets.
(§2) P2Y12 (5′-[…]-3′) and GPIIb (5′-[…]-3′) morpholinos were purchased from Gene Tools (Philomath, Oreg.). Both of these morpholinos were designed to recognize the first 25 bases of coding sequence. Morpholino—(0.1 mM stock contained in 0.2% phenol red) or mock—(0.2% phenol red) injections were performed in one to four cell stage of homozygous TG(GPIIb:eGFP) zebrafish. These embryos were checked 2-4 hours after injection to eliminate non-fertilized or poorly developed eggs. The embryos were placed into Holtfretter's solution at 27° C. until used in the thrombosis assay (5-6 dpf). For the thrombosis assay, larvae were injected with 90 pmol of ADP, a concentration that immobilized all platelets in the larvae. A positive or negative effect was designated for each larva when there were moving or no moving platelets, respectively, after ADP challenge.

GPIIb mRNA = assay: GPIIb morpholino knockdown in ADP thrombosis assay; type: in vivo, zebrafish; details: 2.4 ng morpholino at 1-4 cell stage, 90 pmol ADP at 5-6 dpf, n=34
Excerpt: as §1, §2

platelets = assay: In vivo thrombosis assay: thrombotic agent injected into heart cavity of TG(GPIIb:eGFP) larvae; design: species or system zebrafish
Procedure: Only larvae homozygous for the GPIIb-eGFP transgene, were used for the assay. […] Injection of compounds into the heart cavity of larvae was performed using a glass-pulled capillary needle ( 15 μm in diameter at the tip) attached to a microinjector. Phenol red (0.2%) was routinely used for all injections to ensure accurate injection into the heart cavity. All larvae were anaesthetized with tricaine during the injection and returned to fresh fish water before analysis. Fluorescence was observed using a stereomicroscope with a GFP specific filter set. […] The counts were done for sections of the larvae (FIG. 2) and later totaled for the larvae. […] In these experiments (morpholino), control larvae (ADP alone) had no moving platelets. TG(GPIIb:GFP) zebrafish were bred to produce homozygous TG(GPIIb:eGFP) embryos. […] At 6 dpf, the larvae have developed a swim bladder and most (or all) of their yolk sac has disappeared.

zebrafish larvae = type: in vivo
Procedure: Only larvae homozygous for the GPIIb-eGFP transgene, were used for the assay. Soaking experiments with anti-thrombotic compounds were initiated when larvae were 5 dpf and injections with thrombotic agents were performed the next day. Injection of compounds into the heart cavity of larvae was performed using a glass-pulled capillary needle (˜15 μm in diameter at the tip) attached to a microinjector. Phenol red (0.2%) was routinely used for all injections to ensure accurate injection into the heart cavity. All larvae were anaesthetized with tricaine during the injection and returned to fresh fish water before analysis. Fluorescence was observed using a stereomicroscope with a GFP specific filter set.

[1] = tested on: ADP-induced platelet aggregation; assay: In vivo anti-thrombotic assay: ADP-induced aggregate formation in TG(GPIIb:eGFP) larvae; design: species or system zebrafish; details: for platelet aggregation in zebrafish (summary statement): in vivo
Procedure: (§3) Only larvae homozygous for the GPIIb-eGFP transgene, were used for the assay. […] Injection of compounds into the heart cavity of larvae was performed using a glass-pulled capillary needle ( 15 μm in diameter at the tip) attached to a microinjector. Phenol red (0.2%) was routinely used for all injections to ensure accurate injection into the heart cavity. All larvae were anaesthetized with tricaine during the injection and returned to fresh fish water before analysis. Fluorescence was observed using a stereomicroscope with a GFP specific filter set. […] The counts were done for sections of the larvae (FIG. 2) and later totaled for the larvae. […] In these experiments (morpholino), control larvae (ADP alone) had no moving platelets.

[2] = tested on: thrombin-induced platelet aggregation; assay: In vivo anti-thrombotic assay: thrombin-induced aggregate formation in TG(GPIIb:eGFP) larvae; design: species or system zebrafish
Procedure: as §3

[3] = 5 dpf larvae soaked overnight in varying concentrations, 90 pmol ADP next day
[4] = Plavix approximately 0.2-1 μg/ml overnight
[5] = GPIIb-eGFP transgenic (homozygous), zebrafish, in vivo
[6] = thrombin 3.38 ng (0.018 NIH unit)

5′-AGCTGAGCTGCGTTGTTTGCTCCAT-3′ (morpholino, further chemistry not given here) [P2Y12 morpholino]
effectiveness (larvae with moving platelets after ADP) (P2Y12 mRNA): 50%

5′-GACTGAATTCCAGTTTCTTGTCCAT-3′ (morpholino backbone, further chemistry not given here) [GPIIb morpholino]
tested larvae with moving platelets after ADP injection (GPIIb mRNA): 76.5%

Nc1ncnc2c1ncn2[C@@H]1O[C@H](COP(=O)(O)OP(=O)(O)O)[C@@H](O)[C@H]1O [ADP]
number of macroaggregates compared with phenol red-injected group (platelets; 90 pmol ADP): not significant
platelet movement after injection (platelets; 90 pmol ADP into heart cavity): most or all of the platelets within the larvae stopped moving; also recorded: a complete inhibition of platelet movement was observed
time until platelets stopped moving (platelets; 90 pmol ADP into heart cavity): ≤ 5 min
microaggregates found in each injected larva (platelets; 90 pmol ADP into heart cavity, 6-7 dpf larvae, n=16): about 38±3 microaggregates
duration of the effect (platelets; 90 pmol ADP, observed for up to 8 hours): several hours
platelet movement after injection (platelets; ADP, concentrations lower than 90 pmol): did not induce a complete inhibition of platelet movement
lethality (beating heart) (zebrafish larvae; 90 pmol ADP into heart cavity): not lethal
time within which the larva died (zebrafish larvae; 180 pmol ADP into heart cavity, n=8): 5 to 10 min

CCCCS(=O)(=O)N[C@@H](Cc1ccc(OCCCCC2CCNCC2)cc1)C(=O)O [Aggrastat, tirofiban]
ADP-induced aggregation ([1]; Aggrastat 100 μg/ml soak 24 hours plus 240 ng injected 10 min before ADP): inhibited
ADP-induced aggregation ([1]; Aggrastat 10-50 μg/ml overnight): ineffective
ADP-induced aggregate formation ([1]; Aggrastat soaking alone or injection alone): did not antagonize

N=C(N)NCCCC[C@@H]1NC(=O)CCSSC[C@@H](C(N)=O)NC(=O)[C@@H]2CCCN2C(=O)[C@H](Cc2c[nH]c3ccccc23)NC(=O)[C@H](CC(=O)O)NC(=O)CNC1=O [Integrilin, eptifibatide] ([Mpa][hArg]GDWPC-NH2; disulfide 1-7)
ADP-induced microaggregate formation [1, 3]: dose-dependent inhibition; also recorded: dose-dependently prevented
number of platelet aggregates compared to control group ([1]; Integrilin 0.25-1.0 mg/ml overnight soak): no change
survival after overnight treatment (zebrafish larvae; Integrilin 5 mg/ml): all larvae died

COC(=O)[C@H](c1ccccc1Cl)N1CCc2sccc2C1 [Plavix, Clopidogrel]
ADP-induced aggregate formation [1, 4]: partial inhibition
platelet aggregation in zebrafish (summary statement) [1]: effective at inhibiting
aggregation induced by a high concentration of thrombin [2, 4]: not effective
lethal dose (zebrafish larvae; [5]): ≥ 5 µg/mL

Clc1ccccc1CN1CCc2sccc2C1 [Ticlopidine]
concentration at which larvae did not survive the overnight treatment (zebrafish larvae; [5]): ≥ 10 µM

CC(=O)Oc1ccccc1C(=O)O [aspirin, acetylsalicylic acid]
ADP-induced microaggregate formation [1, 3]: prevented
microaggregate count within control phenol red-injected larvae ([1]; aspirin 115 μg/ml, no ADP): trend toward a decrease
ADP-induced microaggregate formation ([1]; aspirin 95 and 105 μg/ml, overnight soak before ADP challenge): partially prevented
platelet aggregation in zebrafish (summary statement) [1]: effective at inhibiting
survival after overnight treatment (zebrafish larvae; aspirin 125 μg/ml): the larvae died
effect on platelet movement or development of the larvae (zebrafish larvae; aspirin alone): no adverse effect

CNC[C@H](O)c1ccc(O)c(O)c1 [epinephrine]
effect of collagen on platelet aggregation (platelets; epinephrine 18 pg in conjunction with collagen): did not enhance

CC1CC(=O)NN=C1c1cc(-n2ccnc2)cs1 (centres unmarked) [motapizone]
ADP-induced aggregation ([1]; motapizone 50 μM overnight soak): Partial inhibition
ADP-induced microaggregate formation ([1]; motapizone 250 and 100 μM, overnight soak of 5 dpf larvae): effective in blocking
action of ADP on platelet aggregation ([1]; motapizone injected 5 min before ADP challenge): ineffective
ADP-induced aggregation ([1]; motapizone, concentrations lower than 50 μM): ineffective
platelet aggregation in zebrafish (summary statement) [1]: decreases platelet aggregation
platelet aggregation in zebrafish (summary statement) ([1]; listed as Motapizone): effective in reducing

Reopro: human/murine chimeric antibody, GPIIb/IIIa antagonist
ADP-induced microaggregate formation ([1]; Reopro 0.5-5 μg/ml overnight soak plus 120 ng injected 10 min before ADP): dose-dependently inhibited
ADP-induced aggregation of platelets ([1]; Reopro injection alone (120 ng or less), no overnight soak): did not antagonize
ADP-induced microaggregate formation ([1]; Reopro overnight soak plus 60 ng injected): no effect

hirudin
ADP-induced aggregation ([1]; hirudin 0.029 unit, 90 pmol ADP): did not have any effect
thrombin-induced aggregate formation ([2]; hirudin 0.029 unit given simultaneously with thrombin 0.018 NIH unit): no aggregation was observed; also recorded: inhibited

thrombin
duration of arrested platelet movement (platelets; [6]): 30 min
time after which platelets began to move more freely (platelets; [6]): ≤ 25 min
platelet aggregation / arrest after injection (platelets; thrombin 3.38 ng (0.018 NIH unit) into heart cavity): induced platelet aggregation; also recorded: most of the platelets were arrested
platelets arrested (platelets; thrombin 3.38 ng (0.018 NIH unit), 5 min after injection, n=15): 85-90%
platelet mobility (recovery) (platelets; thrombin 3.38 ng, within an hour after injection): most platelets were mobile
